Results on 2 compounds are retold here after PMC6274005, “Interaction of Di-2-pyridylketone 2-pyridine Carboxylic Acid Hydrazone and Its Copper Complex with BSA: Effect on Antitumor Activity as Revealed by Spectroscopic Studies” (Molecules, 2016).

Assay [1] has as its target T1, BSA (Bos taurus, UniProt P02769). Nature of the assay: Fluorescence quenching of BSA (Stern-Volmer, binding constants, van't Hoff thermodynamics). The arrangement: species or system bovine. The note with it: for number of binding sites n per BSA / Ksv (Stern-Volmer dynamic quenching constant) / ΔH of binding to BSA / ΔS of binding to BSA / ΔG of binding to BSA: pH 7.2; for Kq (quenching rate constant of biomolecule): calculated from Ksv with τ0 = 10^−8 s; for shift of BSA fluorescence emission upon addition of the agent: fluorescence titration, CBSA = 1.0 × 10^−5 M, pH 7.2, 288 K; for ΔH of binding to BSA / ΔS of binding to BSA: van't Hoff plot; for ΔG of binding to BSA: ΔG = ΔH − TΔS. As for the experimental part:
To investigate the possible mechanism responsible for fluorescence quenching, Stern–Volmer plots were used to interpret the spectral data. The procedure of fluorescence quenching was first assumed a dynamic quenching process. The dynamic quenching constant Ksv and the apparent biomolecular quenching rate constant Kq were calculated using the Stern–Volmer equation: (1) F0/F=1+Ksv[Q]=1+Kqτ0[Q] where, F0 and F are the steady-state fluorescence intensities in the absence and presence of a quencher, respectively; [Q] is the concentration of the quencher; Ksv is the Stern–Volmer dynamic quenching rate constant; τ0 is the fluorescence lifetime of the protein without the quencher, the average life of a fluorescence molecule is 10^−8 s; and Kq is the quenching rate constant of biomolecule. […] To distinguish the quenching model, additional experiments were conducted at different temperatures, as dynamic and static quenching have different temperature dependencies. With an increase in temperature, the Ksv values decrease for static quenching, and increase for dynamic quenching. […] Kq values calculated for DPPCAH and DPPCAH-Cu ranged from 5 × 10^12~7 × 10^12, and >2 × 10^10 L·mol^−1·s^−1, respectively, which further supported the static quenching model.
For the static quenching model, important binding parameters including association constant (Ka) and number of binding sites (n) were calculated from the plots using the equation: (2) log(F0−F/F0)=log Ka+nlog[Q] where, Ka is the binding constant, and n is the number of binding sites per BSA. Ka and n were obtained from the intercept and slope of the curve. […] The number of binding sites n was 1.0418 for DPPCAH and 1.1053 for DPPCAH-Cu, or approximately 1. Thus, the association of one molecule of quencher with one molecule of protein was confirmed. […] Similar results were reported from studies analyzing interaction of eupatorin with BSA [17].
The interaction of small molecules with biomacromolecule involves hydrogen bonds, electrostatic interactions, van der Waals, and hydrophobic forces. In the present study, the nature of the interaction involved in binding was determined based on thermodynamic parameters, namely, ΔH > 0 and ΔS > 0 would imply a hydrophobic interaction, ΔH < 0 and ΔS < 0 hint imply hydrogen bonding and van der Waals interactions, and ΔH< 0 and ΔS > 0 imply electrostatic force interactions. The thermodynamic parameters were obtained using the van’t Hoff Equation (3): (3) lnK=−ΔH/RT+ΔS/R where, K is the binding constant; T is the absolute temperature; and R is the universal gas constant. ΔH and ΔS were obtained from the slope and intercept of the linear van’t Hoff plot (shown in Figure 5). The free energy change (ΔG) was estimated using the following formula: ΔG = ΔH − TΔS
(§1) For the fluorescence spectra, the excitation wavelength was set at 280 nm and the emission spectra were recorded in the range of 300 to 450 nm. Both excitation and emission slit widths were adjusted to 5 nm. […] Fluorescence emission spectra were then measured on a RF-5301 Spectrofluorophotometer (Shimadzu Scientific Instruments, Kyoto, Japan) at three different temperatures (288, 303, and 310 K). In order to calculate the peak area, the integration of spectra was done in the range of 300 to 450 nm. Synchronous fluorescence spectra were recorded by simultaneously scanning the excitation and emission monochromators, in which a constant wavelength interval was maintained between them. The wavelength interval (Δλ = λem − λex) was fixed individually at 60 nm, at which characteristic information of pertaining to Trp residues was obtained.

Assay [2] addresses T1, BSA. As to the kind of experiment: Synchronous fluorescence spectra of BSA (Δλ = 60 nm). Conditions: CBSA = 10.0 μM, 288 K. In kind it is binding, bovine. As for the experimental part: The bathochromic (or […]) shift noticed during fluorescence titration of BSA with the reagents, implied potent changes in the environment of Trp residues. To confirm these environmental changes, synchronous fluorescence spectra were recorded, because this technique yields information pertaining to the change in the polarity of the microregion near fluorophore molecules. By using different D-value (Δλ) between the excitation and emission wavelength, fluorescence contributors from different aromatic amino acids in the protein can be identified. When Δλ is stabilized at 60 nm, synchronous fluorescence spectroscopy provides the characteristic information specific to Trp residues. […] Although DPPCAH and DPPCAH-Cu could bind BSA, they induced different effects in BSA.
as §1

[3] abbreviates: 303 K (first value of the printed decrease with increasing temperature).
The mark [4] stands for this setting: 310 K (second value of the printed decrease with increasing temperature).

T1 sequence (P02769 25-607): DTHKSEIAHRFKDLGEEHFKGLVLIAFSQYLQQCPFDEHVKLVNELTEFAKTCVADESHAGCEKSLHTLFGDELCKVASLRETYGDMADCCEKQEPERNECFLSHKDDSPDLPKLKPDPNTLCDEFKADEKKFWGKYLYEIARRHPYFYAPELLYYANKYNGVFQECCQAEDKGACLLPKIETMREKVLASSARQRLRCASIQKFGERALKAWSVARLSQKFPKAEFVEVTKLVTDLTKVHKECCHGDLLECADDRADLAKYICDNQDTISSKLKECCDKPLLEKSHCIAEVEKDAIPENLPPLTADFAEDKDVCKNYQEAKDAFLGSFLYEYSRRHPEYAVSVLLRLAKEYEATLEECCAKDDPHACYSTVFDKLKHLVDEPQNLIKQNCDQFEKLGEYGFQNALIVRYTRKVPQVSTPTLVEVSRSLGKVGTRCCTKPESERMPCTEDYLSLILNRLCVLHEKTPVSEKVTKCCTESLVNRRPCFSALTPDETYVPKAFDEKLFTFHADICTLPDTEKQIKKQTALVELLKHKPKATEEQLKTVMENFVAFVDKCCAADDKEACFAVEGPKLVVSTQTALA

Take `O=C(NN=C(c1ccccn1)c1ccccn1)c1ccccn1` [DPPCAH, di-2-pyridylketone-2-pyridine carboxylic acid hydrazone]: the “number of binding sites n per BSA” value at BSA [1] (288 K, CBSA = 10 μM) worked out at 1.0418. Besides, the “Ksv (Stern-Volmer dynamic quenching constant)” value (shortened to “Ksv”) at BSA [1] (setting [3]) is 7.0 × 10^4. Moreover, the “Ksv” value on BSA [1] (setting [4]) was 5.08 × 10^4. Moreover, on BSA [1], the “Kq (quenching rate constant of biomolecule)” value is recorded as 5 × 10^12~7 × 10^12 L·mol^−1·s^−1 and the “shift of BSA fluorescence emission upon addition of the agent” value is “bathochromic red shift”. Also, at BSA [1] (288 K), the “ΔH of binding to BSA” value was -11.23 kcal/mol, the “ΔS of binding to BSA” value is on record as −60.0 J/mol·K and the “ΔG of binding to BSA” value is -7.096 kcal/mol. Moreover, at BSA [2], the “decrease of fluorescence intensity of Trp residue” value is 55% and the “shift of maximum emission wavelength of Trp in synchronous fluorescence” value is reported as “significant red shift”.
Regarding “Copper complex of di-2-pyridylketone 2-pyridinecarboxylic acid hydrazone [DPPCAH-Cu]”, the “number of binding sites n per BSA” value on BSA [1] (288 K, CBSA = 10 μM) is listed as 1.1053. The “Ka (association constant with BSA)” value at BSA [1] (288 K, CBSA = 10 μM, pH 7.2 (10 mM Tris-HCl)) is 6.56 ×10^4. In addition, the “Ksv” value at BSA [1] (setting [3]) is 5.47 × 10^4. Moreover, on BSA [1] (setting [4]), the “Ksv” value is listed as 4.9 × 10^4. Also, the “binding energy obtained from fluorescence quenching” value on BSA [1] (at 288 K, quoted for comparison with docking) is -7.1 kcal/mol. Besides, on BSA [1], the “Kq (quenching rate constant of biomolecule)” value was more than 2e+10 L/mol/s and the “shift of BSA fluorescence emission upon addition of the agent” value is “blue shift”. On BSA [1] (288 K), the “ΔH of binding to BSA” value is -9.218 kcal/mol, the “ΔS of binding to BSA” value is recorded as −41.5 J/mol·K and the “ΔG of binding to BSA” value was -6.36 kcal/mol. Also, on BSA [2], the “decrease of fluorescence intensity of Trp residue” value is on record as 50% and the “shift of maximum emission wavelength of Trp in synchronous fluorescence” value is “blue shift”.
